Experiment [1] deals with GST-Syk Full Protein (human) (Homo sapiens, UniProt P43405). In words: Syk kinase inhibition test (HTRF method). Type of experiment: biochemical. Summed up: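 HTRF read-out: after EDTA termination and 1 h with XL665-streptavidin and Eu-anti-phosphotyrosine, the 665/620 nm ratio was measured. The reaction ran 30 min at 20–25 °C with final 6.4 nM human GST-Syk, 250 nM biotinylated peptide, 100 μM ATP, pH 7.0 HEPES buffer, 2% DMSO.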
(Time-resolved FRET reads energy transfer from a long-lived donor to a nearby acceptor.)

Experiment [2] concerns cultured human mast cells. In words: Degranulation inhibition test using cultured human mast cells (IgE cross-linking, β-Hexosaminidase release). Type of experiment: cell-based. Particulars: Mast cell, cultured human mast cells, read-out: human degranulation ave. IC50. Summed up: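 Degranulation was triggered by anti-hIgE (10 μg/mL final, 30 min, 37 °C) after a 10-min compound pretreatment (DMSO 0.1%) of cord-blood CD34+-derived mast cells primed 5 days with IL-4 and IgE. β-Hexosaminidase in supernatant was measured with p-nitrophenyl-GlcNAc substrate (A405), expressed against water-lysed total; IC50 (M).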

Setting [3] is: Tables 1-x, compounds A, read-out: sykHTRF ave IC50.
[4] abbreviates: HTRF, 100 μM ATP, 30 min room temperature, average, read-out: sykHTRF ave IC50.
[5] abbreviates: anti-hIgE stimulation, β-Hexosaminidase index, average.
Where [6] appears, read: Tables 2-x, thiophene compounds B, read-out: sykHTRK ave IC50.
[7] abbreviates: Tables 2-x, thiophene compounds B.

The IC50 is the concentration needed to halve the response being measured.

SMILES strings stand for the structures. Read-outs that look alike come from different tables or passages of the source.

As to `COc1ccnc(Nc2cccc(-c3cnc(N4CC[C@@H](O)C4)s3)n2)c1` [Compound A-538, (R)-1-{5-[6-(4-methoxypyridin-2-ylamino)pyridin-2-yl]thiazol-2-yl}pyrrolidin-3-ol], the IC50 in experiment [1] (setting [3]) was below 100 nM; in experiment [2] (Tables 1-x, compounds A), 100 to 1000 nM.

In the case of `Cc1ccnc(Nc2cccc(-c3cnc([C@@H](O)CO)s3)n2)c1` [Compound A-78], the 50% inhibitory concentration (IC50) in experiment [1] (setting [4]) and in experiment [2] (setting [5]) was 100 to 1000 nM in each case.

Regarding `Cc1ccnc(Nc2cccc(-c3ccc(CC(C)O)s3)n2)c1` (stereo not shown) [Compound B-71], the IC50 in experiment [1] (setting [6]) and in experiment [2] (setting [7]) was 100 to 1000 nM each time.

`Cc1ccnc(Nc2cccc(-c3cnc([C@H]4CC[C@H](C(=O)NN5CCC(O)CC5)CC4)s3)n2)c1` [Compound A-298, N-(4-hydroxypiperidin-1-yl)-trans-4-{5-[6-(4-methylpyridin-2-ylamino)pyridin-2-yl]thiazol-2-yl}cyclohexanecarboxamide]: the half-maximal inhibitory concentration (IC50) is below 100 nM in experiment [1] (setting [4]) and 100 to 1000 nM in experiment [2] (setting [5]).

On to `Cc1ccnc(Nc2cccc(-c3cnc(C(C)(C)CC(=O)O)s3)n2)c1` [Compound A-145], for which the half-inhibitory concentration (IC50) in experiment [1] (setting [4]) was 100 to 1000 nM; in experiment [2] (setting [5]), above 1000 nM.

As for `Cc1ccnc(Nc2cccc(-c3cnc(N(C)C4CCOCC4)s3)n2)c1` [Compound A-470, N-methyl-N-{5-[6-(4-methylpyridin-2-ylamino)pyridin-2-yl]thiazol-2-yl}-N-tetrahydropyran-4-ylamine], the IC50 in experiment [1] (setting [3]) is below 100 nM; in experiment [2] (Tables 1-x, compounds A), 100 to 1000 nM.

Turning to `Cc1ccnc(Nc2cccc(-c3cnc(C4=NCCC4)s3)n2)c1` [Compound A-110], the IC50 in experiment [1] (setting [4]) and in experiment [2] (setting [5]) was 100 to 1000 nM each time.

Take `CC1(c2ccnc(Nc3cccc(-c4cnc(N5CCC[C@@H](C(=O)O)C5)s4)n3)c2)OCCO1` [Compound A-558, (R)-1-{5-(6-[4-(2-methyl-[1,3]dioxolan-2-yl)pyridin-2-ylamino]pyridin-2-yl}thiazol-2-yl)piperidine-3-carboxylic acid]: the IC50 in experiment [1] (setting [3]) is below 100 nM; in experiment [2] (Tables 1-x, compounds A), above 1000 nM.

For the molecule `Cc1ccnc(Nc2cccc(-c3cnc(N4CCN(S(C)(=O)=O)CC4)s3)n2)c1` [Compound A-412], the 50% inhibitory concentration (IC50) in experiment [1] (setting [3]) is 100 to 1000 nM; in experiment [2] (Tables 1-x, compounds A) it was 100 to 1000 nM.

For `Cc1ccnc(Nc2cccc(-c3sc([N+](=O)[O-])cc3C)n2)c1` [Compound B-21], the IC50 in experiment [1] (setting [6]) and in experiment [2] (setting [7]) was above 1000 nM throughout.

Regarding `Cc1ccnc(Nc2cccc(-c3cnc(C4CCN(C(=O)CO)CC4)s3)n2)c1` [Compound A-187, 2-hydroxy-1-(4-{5-[6-(4-methylpyridin-2-ylamino)pyridin-2-yl]thiazol-2-yl}piperidin-1-yl)ethanone], the results for the IC50 in experiment [1] (setting [4]) and in experiment [2] (setting [5]) were below 100 nM and 100 to 1000 nM, respectively.

Turning to `Cc1ccnc(Nc2cccc(-c3cnc([C@H]4CC[C@H](C(=O)NC5(CO)CCCC5)CC4)s3)n2)c1` [Compound A-310], the IC50 in experiment [1] (setting [4]) was 100 to 1000 nM; in experiment [2] (setting [5]), above 1000 nM.

In the case of `Cc1ccnc(Nc2cccc(-c3cnc([C@H]4CC[C@H](C(=O)N5CC[C@H](O)[C@@H](O)C5)CC4)s3)n2)c1` [Compound A-225], the IC50 in experiment [1] (setting [4]) and in experiment [2] (setting [5]) was 100 to 1000 nM in each case.

Take `CC(=NO)c1sc(-c2cccc(Nc3cc(C)ccn3)n2)cc1C` [Compound B-42]: the IC50 in experiment [1] (setting [6]) is 100 to 1000 nM; in experiment [2] (setting [7]), above 1000 nM.

Take `CO/N=C(\C)c1ccc(-c2cccc(Nc3cc(OC(C)C)ncn3)n2)s1` [Compound B-33]: the values for the half-inhibitory concentration (IC50) in experiment [1] (setting [6]) and in experiment [2] (setting [7]) were 100 to 1000 nM and above 1000 nM, respectively.

As for `Cc1ccnc(Nc2cccc(-c3cnc(N4CCC(C(=O)O)CC4)s3)n2)c1` [Compound A-2, 1-{5-[6-(4-methylpyridin-2-ylamino)pyridin-2-yl]thiazol-2-yl}piperidine-4-carboxylic acid], the IC50 in experiment [1] (setting [4]) was below 100 nM; in experiment [2] (setting [5]), above 1000 nM.

On to `Cc1ccnc(Nc2cccc(-c3cnc(C(=O)NC(C)CO)s3)n2)c1` (stereo not shown) [Compound A-54], for which the IC50 in experiment [1] (setting [4]) is 100 to 1000 nM; in experiment [2] (setting [5]), above 1000 nM.
